According to article PMC9636434, “Discovery of small molecule agonists of the Relaxin Family Peptide Receptor 2” (Communications Biology, 2022):
Values joined by “and” are separate entries in the source; they are usually repeats but may differ in a detail not shown here. Equal entries are not always repeated. Where two headings read alike, the source gives them in different places.

Assays:
human RXFP3 = target: T1, human RXFP3 (Homo sapiens, UniProt Q9NSD7); experiment: GloSensor cAMP assay in RXFP3 transiently transfected HEK293T cells; format: cell-based; conditions: for RLU (cAMP, raw): RXFP3, 0.1 µM isoproterenol, replicates (1)-(4)
T1 construct: host or cells: HEK293T (transient)
T1 sequence (Q9NSD7 1-469): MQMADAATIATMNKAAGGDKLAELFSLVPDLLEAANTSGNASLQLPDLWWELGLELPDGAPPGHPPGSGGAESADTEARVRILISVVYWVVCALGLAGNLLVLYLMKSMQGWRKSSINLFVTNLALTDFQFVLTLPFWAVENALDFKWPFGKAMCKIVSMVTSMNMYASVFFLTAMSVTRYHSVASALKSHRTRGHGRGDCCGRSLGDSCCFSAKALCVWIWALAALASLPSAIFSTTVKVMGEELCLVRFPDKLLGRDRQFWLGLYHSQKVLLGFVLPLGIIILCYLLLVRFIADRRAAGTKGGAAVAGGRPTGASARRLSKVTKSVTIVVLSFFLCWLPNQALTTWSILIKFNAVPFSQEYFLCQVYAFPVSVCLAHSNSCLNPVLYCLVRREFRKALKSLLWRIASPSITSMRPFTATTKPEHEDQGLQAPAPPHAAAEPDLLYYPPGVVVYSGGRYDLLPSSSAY

[1] = target: chimera RXFP1-2 (extracellular domain of RXFP1, transmembrane domain of RXFP2) (Homo sapiens, UniProt Q8WXD0); experiment: HTRF cAMP assay in HEK293T cells transiently transfected with chimera RXFP1-2; format: cell-based; conditions: for Emax: HEK-293T
Method: (§1) Fig. 2 6641 is an allosteric agonist of RXFP2. a HEK-RXFP2 cells co-treated with serial dilutions of INSL3 B dimer antagonist and 30 nM INSL3 or 0.28 µM 6641. HTRF cAMP dose-response inhibition curves were normalized to activity without antagonist co-treatment as 0% inhibition. b HTRF cAMP assay in HEK293T cells transiently transfected with WT or chimeric receptors. Chimera RXFP2-1 contains the extracellular domain of RXFP2 and the transmembrane domain of RXFP1, while chimera RXFP1-2 contains the extracellular domain of RXFP1 and the transmembrane domain of RXFP2. For each receptor, cAMP response induced by INSL3 and 6641 was normalized to FSK (2 µM) as 100% efficacy and DMSO vehicle as 0% efficacy. Emax and EC50 were calculated using four parameter nonlinear fit dose-response curves. Results are expressed as mean ± SEM of 3 independent experiments. Diagrams of the chimeric receptors were produced using GPCRdb.org[58], [59].
(§2) Complementary RXFP2-1 and RXFP1-2 chimeric receptors were used to further investigate the involvement of the RXFP2 extracellular and transmembrane domains on 6641 activity. RXFP2-1 has the extracellular domain of RXFP2 and transmembrane domain of RXFP1, and RXFP1-2 is its complement.
(§3) The HTRF Gs dynamic cAMP assay kit (CisBio, Bedford, MA) was used to measure intracellular cAMP accumulation in HEK293T cells (ATCC, Manassas, VA)[56]. […] The cell stock was verified mycoplasma free and authenticated by ATCC. Transient transfection was accomplished by treating cells in a 6-well plate with a mixture of 2 μg plasmid and 6 μL Lipofectamine 2000 (Invitrogen, Waltham, MA) per manufacturer’s protocol and incubating overnight. For cAMP measurement in 96-well format, HEK293T cells stably transfected with human RXFP2 (HEK-RXFP2), human RXFP1 (HEK-RXFP1), mouse Rxfp1 (HEK-Rxfp1) or transiently transfected with human RXFP1-RXFP2 chimeric receptors were seeded between 7500 and 30,000 cells per well, depending on cell line responsiveness, in serum-free DMEM medium and incubated overnight at 37 °C, 5% CO2. After 18 h, cells were treated with a titration of compound, 2 μM forskolin, or DMSO vehicle. Control wells were also treated with a titration of INSL3 (Phoenix Pharmaceuticals, Burlingame, CA) or human recombinant relaxin 2 (Peprotech, Cranbury, NJ). For the RXFP2 antagonist experiment, cells were co-treated with 0.28 μM compound or 30 nM INSL3 and a titration of the INSL3 B dimer antagonist[38],[39]. For the INSL3 allosteric modulation experiment, cells were co-treated with 0.025, 0.0025, or 0.00025 μM of compound and a titration of INSL3. Cells were incubated for 1 h at 37 °C, 5% CO2, and then kit cAMP-d2 and anti-cAMP antibody were added per manufacturer protocol. Plates were incubated for 1 h at room temperature and the signal was read on a CLARIOstar plate reader (BMG Labtech, Ortenberg, Germany) at 665 and 620 nm emission wavelengths.

[2] = system: chimera RXFP1-2 (extracellular domain of RXFP1, transmembrane domain of RXFP2); experiment: as above; format: cell-based, human
Method: as §1, §2, §3

[3] = system: human aortic vascular smooth muscle cells (HAVSMC); experiment: CellTiter-Glo cytotoxicity assay in HAVSMC cells; format: cell-based; conditions: experiments (1)-(3)
Text: Fig. 4 RXFP2 agonists induce mineralization of primary human osteoblasts and are non-cytotoxic. a Mineral hydroxyapatite fluorescent quantification after 14-day treatment in HCO cells. Results were normalized to control DMSO as 100% mineralization. b HCO and c HAVSMC toxicity after 24-h treatment with RXFP2 agonists, normalized to DMSO treatment as 0% toxicity. Results are expressed as mean ± SEM of 3 independent experiments. *p < 0.05, *** p < 0.001 vs. DMSO using One-way ANOVA.
Cell viability studies were undertaken to identify potential cytotoxic effects of the RXFP2 agonists. HCO cells and human aortic vascular smooth muscle cells (HAVSMC) were treated for 24 h. […] At 8.3 µM and below, no toxicity was found in HCO cells and toxicity was below 20% in HAVSMC cells for all three compounds (Fig. 4b, c).
The ATP CellTiter-Glo Luminescent Cell Viability Assay (Promega, Madison, WI) was used to measure cytotoxicity induced by the compounds in HCO cells and human aortic vascular smooth muscle cells (HAVSMC) (ATCC, Manassas, VA). HCO and HAVSMC cells were seeded in 96-well plates at 3000 and 7000 cells per well respectively. Cells were incubated overnight, treated with compound or DMSO vehicle and incubated for 24 h at 37 °C, 5% CO2. […] Plates were shaken for 2 min, incubated at room temperature for 10 min and the luminescent signal was read on a CLARIOstar plate reader.

[4] = 6641, individual experiments, read-out: EC50 (1)-(3)

Sequence of chimera RXFP1-2 (extracellular domain of RXFP1, transmembrane domain of RXFP2) (Q8WXD0 417-754 limits assumed, change not shown): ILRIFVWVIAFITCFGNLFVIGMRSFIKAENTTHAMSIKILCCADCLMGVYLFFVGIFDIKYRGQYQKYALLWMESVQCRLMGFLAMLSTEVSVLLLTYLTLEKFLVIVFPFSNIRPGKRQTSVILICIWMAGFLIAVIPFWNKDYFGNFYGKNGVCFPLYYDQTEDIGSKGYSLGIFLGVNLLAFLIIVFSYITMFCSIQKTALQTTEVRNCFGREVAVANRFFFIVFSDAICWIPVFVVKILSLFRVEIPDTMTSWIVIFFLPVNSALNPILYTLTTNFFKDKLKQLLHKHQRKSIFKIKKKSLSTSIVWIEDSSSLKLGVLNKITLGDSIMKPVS
Sequence of chimera RXFP1-2 (extracellular domain of RXFP1, transmembrane domain of RXFP2) (Q9HBX9 1-409, change not shown, further chain): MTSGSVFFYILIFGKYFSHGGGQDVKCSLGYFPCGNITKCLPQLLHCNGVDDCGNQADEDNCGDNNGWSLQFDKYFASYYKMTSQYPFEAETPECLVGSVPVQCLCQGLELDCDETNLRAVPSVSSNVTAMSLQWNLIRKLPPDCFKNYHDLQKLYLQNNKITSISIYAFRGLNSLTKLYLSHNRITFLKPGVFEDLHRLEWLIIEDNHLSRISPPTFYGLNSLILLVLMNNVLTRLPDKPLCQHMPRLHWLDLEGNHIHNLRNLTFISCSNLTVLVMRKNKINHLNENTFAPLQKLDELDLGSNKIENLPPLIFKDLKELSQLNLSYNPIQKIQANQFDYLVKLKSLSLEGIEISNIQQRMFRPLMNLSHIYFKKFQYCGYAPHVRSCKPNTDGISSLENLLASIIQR
Sequence of chimera RXFP1-2 (extracellular domain of RXFP1, transmembrane domain of RXFP2) (Homo sapiens, UniProt Q8WXD0) (Q8WXD0 417-754 limits assumed, stated change not applied): as the sequence (Q8WXD0 417-754 limits assumed, change not shown) above
Sequence of chimera RXFP1-2 (extracellular domain of RXFP1, transmembrane domain of RXFP2) (Homo sapiens, UniProt Q8WXD0) (Q9HBX9 1-409, stated change not applied, further chain): as the sequence (Q9HBX9 1-409, change not shown, further chain) above

Compound: O=C1Nc2ccc(-c3cc(C(F)(F)F)cc(C(F)(F)F)c3)cc2C(=O)N2CCN(C(=O)COc3ccc(OC(F)(F)F)cc3I)C[C@@H]12 [compound 6641]
- RLU (cAMP, raw) (human RXFP3; Log [M] -4.52): 1801.05 RLU and 1842.11 RLU and 1885.55 RLU and 1904.59 RLU
- RLU (cAMP, raw) (human RXFP3; Log [M] -5): 1713.57 RLU and 1782 RLU and 1870.67 RLU and 1664.77 RLU
- RLU (cAMP, raw) (human RXFP3; Log [M] -5.52): 1763.55 RLU and 1915.9 RLU and 1776.65 RLU and 1719.52 RLU
- RLU (cAMP, raw) (human RXFP3; Log [M] -6): 2045.03 RLU and 1694.52 RLU and 1928.99 RLU and 1704.05 RLU
- RLU (cAMP, raw) (human RXFP3; Log [M] -6.52): 1626.68 RLU and 1976 RLU and 1728.44 RLU and 1743.92 RLU
- RLU (cAMP, raw) (human RXFP3; Log [M] -7): 2133.7 RLU and 1895.07 RLU and 2053.37 RLU and 1981.36 RLU
- RLU (cAMP, raw) (human RXFP3; Log [M] -7.52): 1652.87 RLU and 1825.44 RLU and 1426.73 RLU and 1642.75 RLU
- RLU (cAMP, raw) (human RXFP3; Log [M] -8): 1859.96 RLU and 1760.58 RLU and 1940.89 RLU and 1974.81 RLU
- RLU (cAMP, raw) (human RXFP3; Log [M] -8.52): 2192.97 RLU and 1919.63 RLU
- RLU (cAMP, raw) (human RXFP3; Log [M] -9): 1940.02 RLU and 2105.38 RLU and 1999.67 RLU and 2166.54 RLU
- RLU (cAMP, raw) (human RXFP3; Log [M] -9.52): 2103.87 RLU and 2056.3 RLU and 1688.58 RLU
- RLU (cAMP, raw) (human RXFP3; Log [M] -10): 1933.98 RLU and 1927.18 RLU and 2266.97 RLU and 1930.96 RLU
- RLU (cAMP, raw) (human RXFP3; Log [M] -10.52): 1985.33 RLU and 1919.63 RLU and 2191.46 RLU and 1872.07 RLU
- RLU (cAMP, raw) (human RXFP3; Log [M] -11): 2121.99 RLU and 2313.03 RLU and 1878.86 RLU and 1896.98 RLU
- RLU (cAMP, raw) (human RXFP3; Log [M] -11.52): 2326.62 RLU and 1848.66 RLU and 1903.78 RLU and 1954.37 RLU
- RLU (cAMP, raw) (human RXFP3; Log [M] -12): 1756.54 RLU and 2242.81 RLU and 2177.87 RLU and 2001.94 RLU
- activation of RXFP3 (cAMP inhibition) (human RXFP3; cAMP induced by 0.1 µM isoproterenol): does not activate
- EC50 [1, 4]: 19 nM and 14 nM
- Emax ([1]; individual experiments, FSK (2 µM) = 100% efficacy, read-out: Emax (1)-(3)): 96.5%
- Emax ([1]; mean (± SEM) of 3, FSK (2 µM) = 100% efficacy, read-out: Emax (AVERAGE)): 96.47 ± 0.43%
- EC50 [2, 4]: 17 nM
- Emax (1)-(3) ([2]; individual experiments, FSK (2 µM) = 100% efficacy): 95.72% and 97.22%
- % Tox ([3]; Log [M] -5.08, 24 h): 15.51% and 24.11% and 15.33%
- % Tox ([3]; Log [M] -5.56, 24 h): 15.84% and 5.85%
